Laboratory results from patent publication US10357484B2, “Heterocyclic compound” (Takeda Pharmaceutical Company Limited, priority 2015, dated 2019).

Tests used:
Assay type in all cases: biochemical
HDAC6 enzyme = biological target: T1, HDAC6 enzyme (Homo sapiens, UniProt Q9UBN7); assay: HDAC6 enzyme inhibitory assay (HDAC-Glo I/II Assay kit); conditions: 1 μM test compound; wells without enzyme = 100% inhibition; read-out: HDAC6 inhibitory rate (%) (1 μM)
T1 construct: transducing full length HDAC1 and HDAC6 genes into Sf-9 insect cells; GST; purchased SignalChem; host or cells: Sf-9 insect cells
T1 sequence (Q9UBN7 1-1215): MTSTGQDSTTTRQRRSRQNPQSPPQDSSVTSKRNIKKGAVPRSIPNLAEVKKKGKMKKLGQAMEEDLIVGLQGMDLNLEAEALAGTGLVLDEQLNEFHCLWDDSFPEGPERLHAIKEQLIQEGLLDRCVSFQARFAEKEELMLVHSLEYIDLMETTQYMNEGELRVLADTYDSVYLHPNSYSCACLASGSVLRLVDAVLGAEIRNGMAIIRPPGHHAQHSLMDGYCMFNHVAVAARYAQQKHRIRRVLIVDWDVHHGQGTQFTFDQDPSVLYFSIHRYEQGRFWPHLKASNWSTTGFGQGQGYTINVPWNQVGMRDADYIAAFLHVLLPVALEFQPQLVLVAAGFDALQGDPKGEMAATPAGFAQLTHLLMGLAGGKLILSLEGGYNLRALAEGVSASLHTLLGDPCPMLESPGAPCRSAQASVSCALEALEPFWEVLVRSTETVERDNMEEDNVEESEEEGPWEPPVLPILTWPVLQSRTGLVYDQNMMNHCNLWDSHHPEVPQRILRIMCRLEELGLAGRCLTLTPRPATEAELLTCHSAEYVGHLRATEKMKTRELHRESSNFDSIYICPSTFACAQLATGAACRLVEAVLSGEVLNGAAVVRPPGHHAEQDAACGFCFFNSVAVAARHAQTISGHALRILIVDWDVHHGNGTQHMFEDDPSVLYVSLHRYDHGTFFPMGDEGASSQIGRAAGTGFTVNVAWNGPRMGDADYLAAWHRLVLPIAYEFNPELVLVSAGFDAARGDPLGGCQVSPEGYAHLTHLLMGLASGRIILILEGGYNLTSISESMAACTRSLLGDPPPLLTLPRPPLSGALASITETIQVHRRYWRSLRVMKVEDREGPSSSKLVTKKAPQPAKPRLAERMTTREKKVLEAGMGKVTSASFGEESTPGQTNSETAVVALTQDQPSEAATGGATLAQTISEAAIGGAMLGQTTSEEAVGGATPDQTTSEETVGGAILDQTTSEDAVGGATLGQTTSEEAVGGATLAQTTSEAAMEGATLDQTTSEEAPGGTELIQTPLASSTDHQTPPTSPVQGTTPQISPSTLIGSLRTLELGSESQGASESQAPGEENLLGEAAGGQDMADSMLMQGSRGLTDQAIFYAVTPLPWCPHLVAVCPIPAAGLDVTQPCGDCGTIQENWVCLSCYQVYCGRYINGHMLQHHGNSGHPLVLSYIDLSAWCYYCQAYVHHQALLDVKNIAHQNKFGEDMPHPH
Description: (§1) HDAC1/6 Enzyme Inhibitory Assay
(§2) HDAC1 enzyme and HDAC6 enzyme each prepared by transducing full length HDAC1 and HDAC6 genes into Sf-9 insect cells and purifying by GST affinity column were purchased from SignalChem. Using these enzymes, HDAC1 and/or HDAC6 enzyme inhibitory activities of the compound of the present invention were evaluated. Enzymes were used after preserved at −70° C. HDAC1 or HDAC6 enzyme inhibitory activity of the compound of the present invention was measured using HDAC-Glo™ I/II Assay kit (Promega) according to the following experimental method. The test compound diluted with assay buffer (24 mM Tris-HCl (pH 7.5), 1 mM MgCl2, 0.35 mM KCl, 135 mM NaCl, 0.6 mM Glutathione, 0.01% Tween-20) was added to a 384-well plate by each 2 μL. Then, HDAC1 or HDAC6 enzyme solution diluted with assay buffer was added thereto by each 4 μL, and the plate was incubated at room temperature for 60 min. After incubated, HDAC substrate-Developer solution prepared according to Promega protocol attached to the assay kit was added to the 384-well plate by each 2 μL, and the enzyme reaction was started. After reacting at room temperature for 20 min, luminescence level was measured using plate reader Envision (PerkinElmer). The inhibitory activity of each compound was calculated as a relative activity value when luminescence level in wells without enzyme is considered as 100% inhibition.

HDAC1 enzyme = biological target: T2, HDAC1 enzyme (Homo sapiens, UniProt Q13547); assay: HDAC1 enzyme inhibitory assay (HDAC-Glo I/II Assay kit); conditions: 1 μM test compound; wells without enzyme = 100% inhibition; read-out: HDAC1 inhibitory rate (%) (1 μM)
T2 construct: transducing full length HDAC1 and HDAC6 genes into Sf-9 insect cells; GST; purchased SignalChem; host or cells: Sf-9 insect cells
Description: as §1, §2

HDAC9 enzyme = biological target: T3, HDAC9 enzyme (Homo sapiens, UniProt Q9UKV0); assay: HDAC9 enzyme inhibitory assay (HDAC-Glo class IIa); conditions: 1 μM test compound; wells without enzyme = 100% inhibition; read-out: HDAC9 inhibitory rate (%) (1 μM)
T3 construct: transducing full length HDAC9 gene into Sf-9 insect cells; made in house; host or cells: Sf-9 insect cells
Description: HDAC9 Enzyme Inhibitory Assay
Enzyme was prepared by transducing full length HDAC9 gene into Sf-9 insect cells and purifying by Ni-NTA affinity column, and HDAC9 enzyme inhibitory activity was evaluated. Enzymes were used after preserved at −70° C. HDAC9 enzyme inhibitory activity of the test compound was measured using HDAC-Glo class IIa (Promega) according to the following experimental method. The test compound diluted with assay buffer (24 mM Tris-HCl (pH 7.5), 1 mM MgCl2, 0.35 mM KCl, 135 mM NaCl, 0.6 mM Glutathione, 0.01% Tween-20) was added to a 384-well plate by each 2 μL. Then, HDAC9 enzyme solution diluted with assay buffer was added thereto by each 2 μL, and the plate was incubated at room temperature for 60 min. After incubated, HDAC substrate-Developer solution prepared according to Promega protocol was added to the 384-well plate by each 4 μL, and the enzyme reaction was started. After reacting at room temperature for 20 min, luminescence level was measured using plate reader Envision (PerkinElmer). The inhibitory activity of each compound was calculated as a relative activity value when luminescence level in wells without enzyme is considered as 100% inhibition.

T3 sequence (Q9UKV0 whole entry, species assumed): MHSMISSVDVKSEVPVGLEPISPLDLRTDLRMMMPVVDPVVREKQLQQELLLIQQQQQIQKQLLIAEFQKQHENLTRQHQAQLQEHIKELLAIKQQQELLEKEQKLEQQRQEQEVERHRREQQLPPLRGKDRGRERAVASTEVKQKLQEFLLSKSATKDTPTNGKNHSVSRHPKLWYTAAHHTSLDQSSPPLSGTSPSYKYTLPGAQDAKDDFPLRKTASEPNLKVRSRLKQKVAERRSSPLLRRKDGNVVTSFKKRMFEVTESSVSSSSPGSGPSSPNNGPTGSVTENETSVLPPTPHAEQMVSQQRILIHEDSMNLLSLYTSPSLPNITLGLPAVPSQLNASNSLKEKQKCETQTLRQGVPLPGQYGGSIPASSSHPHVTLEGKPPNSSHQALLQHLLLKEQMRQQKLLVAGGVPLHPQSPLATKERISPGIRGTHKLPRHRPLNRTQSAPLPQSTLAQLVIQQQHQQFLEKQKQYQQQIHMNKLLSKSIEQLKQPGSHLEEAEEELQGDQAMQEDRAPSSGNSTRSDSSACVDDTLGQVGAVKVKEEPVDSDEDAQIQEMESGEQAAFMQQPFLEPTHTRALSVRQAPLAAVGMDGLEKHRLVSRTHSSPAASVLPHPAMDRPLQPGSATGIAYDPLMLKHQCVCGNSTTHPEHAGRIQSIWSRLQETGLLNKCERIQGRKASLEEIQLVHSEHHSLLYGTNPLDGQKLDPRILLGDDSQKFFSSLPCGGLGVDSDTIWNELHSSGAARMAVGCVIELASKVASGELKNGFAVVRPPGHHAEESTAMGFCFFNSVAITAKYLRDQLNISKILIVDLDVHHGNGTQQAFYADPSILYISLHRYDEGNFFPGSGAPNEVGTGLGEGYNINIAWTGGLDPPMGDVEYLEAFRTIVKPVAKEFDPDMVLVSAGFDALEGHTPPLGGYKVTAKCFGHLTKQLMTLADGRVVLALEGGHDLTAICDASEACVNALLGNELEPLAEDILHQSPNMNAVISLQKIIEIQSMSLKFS
T2 sequence (Q13547 whole entry): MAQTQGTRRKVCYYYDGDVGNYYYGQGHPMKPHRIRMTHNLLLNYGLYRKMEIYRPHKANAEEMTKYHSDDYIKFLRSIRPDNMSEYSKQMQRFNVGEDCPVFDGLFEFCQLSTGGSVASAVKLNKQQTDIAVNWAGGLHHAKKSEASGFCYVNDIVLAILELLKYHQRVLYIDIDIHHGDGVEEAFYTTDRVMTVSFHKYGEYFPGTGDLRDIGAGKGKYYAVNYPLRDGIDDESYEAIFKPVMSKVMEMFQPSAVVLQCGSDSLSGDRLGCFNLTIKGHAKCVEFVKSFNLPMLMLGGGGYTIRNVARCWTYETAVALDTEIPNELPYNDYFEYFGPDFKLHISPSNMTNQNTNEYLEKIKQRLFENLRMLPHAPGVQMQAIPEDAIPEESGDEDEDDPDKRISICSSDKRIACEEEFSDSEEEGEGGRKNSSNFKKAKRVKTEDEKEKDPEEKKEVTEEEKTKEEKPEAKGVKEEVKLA

Row | SMILES | inhibition at 1 µM (HDAC6 enzyme) [%] | inhibition at 1 µM (HDAC1 enzyme) [%] | inhibition at 1 µM (HDAC9 enzyme) [%]
1 | N#Cc1cccc(CN2Cc3ccc(-c4noc(C(F)(F)F)n4)cc3C2=O)c1 [Example 28, 3-((1-oxo-6-(5-(trifluoromethyl)-1,2,4-oxadiazol-3-yl)-1,3-dihydro-2H-isoindol-2-yl)methyl)benzonitrile] | 95 | 26 | 82
2 | C[C@@H](c1ccc(F)cc1)N1Cc2ccc(-c3noc(C(F)(F)F)n3)cc2C1=O [Example 13, 2-((1S)-1-(4-fluorophenyl)ethyl)-6-(5-(trifluoromethyl)-1,2,4-oxadiazol-3-yl)isoindolin-1-one] | 90 | 14 | 79
3 | O=C1c2cc(-c3noc(C(F)(F)F)n3)ccc2CN1Cc1ccccn1 [Example 32] | 99 | 13 | 77
4 | C[C@@H](c1ccccc1)N1Cc2ccc(-c3noc(C(F)(F)F)n3)cc2C1=O [Example 8, 2-((1S)-1-phenylethyl)-6-(5-(trifluoromethyl)-1,2,4-oxadiazol-3-yl)isoindolin-1-one] | 99 | 19 | 87
5 | COc1ccccc1CN1Cc2ccc(-c3noc(C(F)(F)F)n3)cc2C1=O [Example 12, 2-(2-methoxybenzyl)-6-(5-(trifluoromethyl)-1,2,4-oxadiazol-3-yl)isoindolin-1-one] | 96 | 23 | 76
6 | O=C1c2cc(-c3noc(C(F)(F)F)n3)ccc2CN1Cc1c(F)cccc1F [Example 27, 2-(2,6-difluorobenzyl)-6-(5-(trifluoromethyl)-1,2,4-oxadiazol-3-yl)isoindolin-1-one] | 96 | 21 | 76
7 | C[C@@H](c1ccc(F)cc1OC(F)F)N1Cc2ccc(-c3noc(C(F)(F)F)n3)cc2C1=O [Example 21, 2-((1S)-1-(2-(difluoromethoxy)-4-fluorophenyl)ethyl)-6-(5-(trifluoromethyl)-1,2,4-oxadiazol-3 yl)isoindolin-1-one] | 96 | 18 | 73
8 | Cc1csc(CN2Cc3ccc(-c4noc(C(F)(F)F)n4)cc3C2=O)n1 [Example 37, 2-((4-methyl-1,3-thiazol-2-yl)methyl)-6-(5-(trifluoromethyl)-1,2,4-oxadiazol-3-yl)isoindolin-1-one] | 96 | 20 | 84
9 | C[C@@H](c1ccc(Cl)cc1)N1Cc2ccc(-c3noc(C(F)(F)F)n3)cc2C1=O [Example 14, 2-((1S)-1-(4-chlorophenyl)ethyl)-6-(5-(trifluoromethyl)-1,2,4-oxadiazol-3-yl)isoindolin-1-one] | 88 | 9 | 76
10 | Cc1cc(CN2Cc3ccc(-c4noc(C(F)(F)F)n4)cc3C2=O)nn1C [Example 38, 2-((1,5-dimethyl-1H-pyrazol-3-yl)methyl)-6-(5-(trifluoromethyl)-1,2,4-oxadiazol-3-yl)isoindolin-1-one] | 97 | 23 | 85
11 | N#Cc1ccc(CN2Cc3ccc(-c4noc(C(F)(F)F)n4)cc3C2=O)cc1 [Example 29, 4-((1-oxo-6-(5-(trifluoromethyl)-1,2,4-oxadiazol-3-yl)-1,3-dihydro-2H-isoindol-2-yl)methyl)benzonitrile] | 94 | 23 | 74
12 | O=C1c2cc(-c3noc(C(F)(F)F)n3)ccc2CN1Cc1ccccc1Oc1ccccc1 [Example 11, 2-(2-phenoxybenzyl)-6-(5-(trifluoromethyl)-1,2,4-oxadiazol-3-yl)isoindolin-1-one] | 68 | 4 | 5
